Measured values published in US8143290B2, “Chemical compounds 572” (AstraZeneca AB, priority 2006, dated 2012).

Each compound was assayed against T1, recombinant human GR (Homo sapiens, UniProt P04150) (assay: Human Glucocorticoid Receptor (GR) Assay, fluorescence polarization). Details: GS Red tracer, incubated 2 h at r.t., XLfit model 205, read-out: GRhuFL_FP_v2 Mean IC50.
T1 construct: purchased Panvera/Invitrogen P2812 (kit P2893)
T1 sequence (P04150 1-777): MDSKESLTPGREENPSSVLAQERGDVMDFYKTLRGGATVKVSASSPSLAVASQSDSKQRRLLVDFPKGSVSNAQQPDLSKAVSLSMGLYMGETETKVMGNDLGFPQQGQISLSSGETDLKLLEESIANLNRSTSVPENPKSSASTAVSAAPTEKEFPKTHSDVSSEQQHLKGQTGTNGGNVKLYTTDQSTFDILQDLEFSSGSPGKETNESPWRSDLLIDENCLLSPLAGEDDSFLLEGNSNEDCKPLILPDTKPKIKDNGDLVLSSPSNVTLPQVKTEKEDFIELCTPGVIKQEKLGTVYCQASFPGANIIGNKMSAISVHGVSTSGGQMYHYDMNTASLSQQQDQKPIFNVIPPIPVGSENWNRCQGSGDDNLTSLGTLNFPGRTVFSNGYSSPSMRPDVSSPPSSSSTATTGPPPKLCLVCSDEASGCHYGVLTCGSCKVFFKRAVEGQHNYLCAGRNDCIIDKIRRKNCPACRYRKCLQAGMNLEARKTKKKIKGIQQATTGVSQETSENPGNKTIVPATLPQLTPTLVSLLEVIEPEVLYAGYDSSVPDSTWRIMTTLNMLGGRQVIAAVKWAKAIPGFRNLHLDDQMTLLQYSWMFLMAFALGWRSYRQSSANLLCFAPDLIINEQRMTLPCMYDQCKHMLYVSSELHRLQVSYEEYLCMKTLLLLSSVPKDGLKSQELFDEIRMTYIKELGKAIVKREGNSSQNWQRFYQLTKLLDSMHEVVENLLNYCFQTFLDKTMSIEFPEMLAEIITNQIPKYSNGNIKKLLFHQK
Format: binding
Summary of the method: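 Fluorescence polarization kit assay: recombinant GR and GS Red fluorescent ligand with Stabilizing Peptide and DTT in potassium phosphate/sodium molybdate/EDTA screening buffer. Plates incubated 2 h in the dark at r.t.; DMSO served as 0% and dexamethasone as 100% control.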

Row | IC50 [nM] | Compound
1 | 4.9 | C[C@H](NC(=O)C(C)(C)F)[C@H](Oc1ccc2c(cnn2-c2ccc(F)cc2)c1)c1ccc(F)c(F)c1 [Example 241, N-[(1R,2S)-1-(3,4-difluorophenyl)-1-[1-(4-fluorophenyl)indazol-5-yl]oxy-propan-2-yl]-2-fluoro-2-methyl-propanamide]
2 | 5.5 | Cc1ccc([C@@H](Oc2ccc3c(cnn3-c3ccc(F)cc3)c2)[C@H](C)NC(=O)C(C)(C)F)cc1F [Example 242, 2-fluoro-N-[(1R,2S)-1-(3-fluoro-4-methyl-phenyl)-1-[1-(4-fluorophenyl)indazol-5-yl]oxy-propan-2-yl]-2-methyl-propanamide]
3 | 5.5 | C[C@H](NC(=O)C(C)(C)F)[C@H](Oc1ccc2c(cnn2-c2ccc(F)cc2)c1)c1cccc(F)c1 [Example 243, 2-fluoro-N-[(1R,2S)-1-(3-fluorophenyl)-1-[1-(4-fluorophenyl)indazol-5-yl]oxy-propan-2-yl]-2-methyl-propanamide]
4 | 8.3 | Cc1ccc(C)c([C@@H](Oc2ccc3c(cnn3-c3ccc(F)cc3)c2)[C@H](C)NC(=O)C(C)(C)F)c1 [Example 244, N-[(1R,2S)-1-(2,5-dimethylphenyl)-1-[1-(4-fluorophenyl)indazol-5-yl]oxy-propan-2-yl]-2-fluoro-2-methyl-propanamide]
5 | 5.5 | Cc1ccc([C@@H](Oc2ccc3c(cnn3-c3ccc(F)cc3)c2)[C@H](C)NC(=O)C(C)(C)F)c(C)c1 [Example 245, N-[(1R,2S)-1-(2,4-dimethylphenyl)-1-[1-(4-fluorophenyl)indazol-5-yl]oxy-propan-2-yl]-2-fluoro-2-methyl-propanamide]
6 | 6 | COc1ccc([C@@H](Oc2ccc3c(cnn3-c3ccc(F)cc3)c2)[C@H](C)NC(=O)C(C)(C)F)cc1F [Example 246, 2-fluoro-N-[(1R,2S)-1-(3-fluoro-4-methoxy-phenyl)-1-[1-(4-fluorophenyl)indazol-5-yl]oxy-propan-2-yl]-2-methyl-propanamide]
7 | 4.4 | C[C@H](NC(=O)C(C)(C)F)[C@H](Oc1ccc2c(cnn2-c2ccc(F)cc2)c1)c1cccc(Cl)c1 [Example 247, N-[(1R,2S)-1-(3-chlorophenyl)-1-[1-(4-fluorophenyl)indazol-5-yl]oxy-propan-2-yl]-2-fluoro-2-methyl-propanamide]
8 | 4.8 | Cc1cc(F)ccc1[C@@H](Oc1ccc2c(cnn2-c2ccc(F)cc2)c1)[C@H](C)NC(=O)C(C)(C)F [Example 248, 2-fluoro-N-[(1R,2S)-1-(4-fluoro-2-methyl-phenyl)-1-[1-(4-fluorophenyl)indazol-5-yl]oxy-propan-2-yl]-2-methyl-propanamide]
9 | 5 | Cc1ccc(F)cc1[C@@H](Oc1ccc2c(cnn2-c2ccc(F)cc2)c1)[C@H](C)NC(=O)C(C)(C)F [Example 249, 2-fluoro-N-[(1R,2S)-1-(5-fluoro-2-methyl-phenyl)-1-[1-(4-fluorophenyl)indazol-5-yl]oxy-propan-2-yl]-2-methyl-propanamide]
10 | 6.9 | COc1ccc(F)cc1[C@@H](Oc1ccc2c(cnn2-c2ccc(F)cc2)c1)[C@H](C)NC(=O)C(C)(C)F [Example 250, 2-fluoro-N-[(1R,2S)-1-(5-fluoro-2-methoxy-phenyl)-1-[1-(4-fluorophenyl)indazol-5-yl]oxy-propan-2-yl]-2-methyl-propanamide]
11 | 5.3 | C[C@H](NC(=O)C(C)(C)CO)[C@H](Oc1ccc2c(cnn2-c2ccc(F)cc2)c1)c1ccc(F)c(F)c1 [Example 251, N-[(1R,2S)-1-(3,4-difluorophenyl)-1-[1-(4-fluorophenyl)indazol-5-yl]oxy-propan-2-yl]-3-hydroxy-2,2-dimethyl-propanamide]
12 | 4.7 | Cc1ccc([C@@H](Oc2ccc3c(cnn3-c3ccc(F)cc3)c2)[C@H](C)NC(=O)C(C)(C)CO)cc1F [Example 252, N-[(1R,2S)-1-(3-fluoro-4-methyl-phenyl)-1-[1-(4-fluorophenyl)indazol-5-yl]oxy-propan-2-yl]-3-hydroxy-2,2-dimethyl-propanamide]
13 | 7.5 | C[C@H](NC(=O)C(C)(C)CO)[C@H](Oc1ccc2c(cnn2-c2ccc(F)cc2)c1)c1cccc(F)c1 [Example 253, N-[(1R,2S)-1-(3-fluorophenyl)-1-[1-(4-fluorophenyl)indazol-5-yl]oxy-propan-2-yl]-3-hydroxy-2,2-dimethyl-propanamide]
14 | 8.5 | Cc1ccc(C)c([C@@H](Oc2ccc3c(cnn3-c3ccc(F)cc3)c2)[C@H](C)NC(=O)C(C)(C)CO)c1 [Example 254, N-[(1R,2S)-1-(2,5-dimethylphenyl)-1-[1-(4-fluorophenyl)indazol-5-yl]oxy-propan-2-yl]-3-hydroxy-2,2-dimethyl-propanamide]
15 | 5.1 | C[C@H](NC(=O)C(C)(C)CO)[C@H](Oc1ccc2c(cnn2-c2ccc(F)cc2)c1)c1cccc(Cl)c1 [Example 255, N-[(1R,2S)-1-(3-chlorophenyl)-1-[1-(4-fluorophenyl)indazol-5-yl]oxy-propan-2-yl]-3-hydroxy-2,2-dimethyl-propanamide]
16 | 5.3 | Cc1cc(F)ccc1[C@@H](Oc1ccc2c(cnn2-c2ccc(F)cc2)c1)[C@H](C)NC(=O)C(C)(C)CO [Example 256, N-[(1R,2S)-1-(4-fluoro-2-methyl-phenyl)-1-[1-(4-fluorophenyl)indazol-5-yl]oxy-propan-2-yl]-3-hydroxy-2,2-dimethyl-propanamide]
17 | 13 | COCC(=O)N[C@@H](C)[C@H](Oc1ccc2c(cnn2-c2ccc(F)cc2)c1)c1ccc(C)c(C)c1 [Example 257, N-[(1R,2S)-1-(3,4-dimethylphenyl)-1-[1-(4-fluorophenyl)indazol-5-yl]oxy-propan-2-yl]-2-methoxy-acetamide]
18 | 4.4 | COCC(=O)N[C@@H](C)[C@H](Oc1ccc2c(cnn2-c2ccc(F)cc2)c1)c1ccc(F)c(F)c1 [Example 258, N-[(1R,2S)-1-(3,4-difluorophenyl)-1-[1-(4-fluorophenyl)indazol-5-yl]oxy-propan-2-yl]-2-methoxy-acetamide]
19 | 5.3 | COCC(=O)N[C@@H](C)[C@H](Oc1ccc2c(cnn2-c2ccc(F)cc2)c1)c1ccc(C)c(F)c1 [Example 259, N-[(1R,2S)-1-(3-fluoro-4-methyl-phenyl)-1-[1-(4-fluorophenyl)indazol-5-yl]oxy-propan-2-yl]-2-methoxy-acetamide]
20 | 14 | COCC(=O)N[C@@H](C)[C@H](Oc1ccc2c(cnn2-c2ccc(F)cc2)c1)c1cc(C)ccc1C [Example 260, N-[(1R,2S)-1-(2,5-dimethylphenyl)-1-[1-(4-fluorophenyl)indazol-5-yl]oxy-propan-2-yl]-2-methoxy-acetamide]
21 | 5.7 | COCC(=O)N[C@@H](C)[C@H](Oc1ccc2c(cnn2-c2ccc(F)cc2)c1)c1ccc(C)cc1C [Example 261, N-[(1R,2S)-1-(2,4-dimethylphenyl)-1-[1-(4-fluorophenyl)indazol-5-yl]oxy-propan-2-yl]-2-methoxy-acetamide]
22 | 4.5 | COCC(=O)N[C@@H](C)[C@H](Oc1ccc2c(cnn2-c2ccc(F)cc2)c1)c1ccc(OC)c(F)c1 [Example 262, N-[(1R,2S)-1-(3-fluoro-4-methoxy-phenyl)-1-[1-(4-fluorophenyl)indazol-5-yl]oxy-propan-2-yl]-2-methoxy-acetamide]
23 | 4.2 | COCC(=O)N[C@@H](C)[C@H](Oc1ccc2c(cnn2-c2ccc(F)cc2)c1)c1cccc(F)c1 [Example 263, N-[(1R,2S)-1-(3-fluorophenyl)-1-[1-(4-fluorophenyl)indazol-5-yl]oxy-propan-2-yl]-2-methoxy-acetamide]
24 | 6.5 | COc1ccc([C@@H](Oc2ccc3c(cnn3-c3ccc(F)cc3)c2)[C@H](C)NC(=O)C(F)(F)F)cc1F [Example 264, 2,2,2-trifluoro-N-[(1R,2S)-1-(3-fluoro-4-methoxy-phenyl)-1-[1-(4-fluorophenyl)indazol-5-yl]oxy-propan-2-yl]acetamide]
25 | 25 | COc1ccc([C@@H](Oc2ccc3c(cnn3-c3ccc(F)cc3)c2)[C@H](C)NC(=O)C2(C)CC2)c(C)c1 [Example 265, N-[(1R,2S)-1-[1-(4-fluorophenyl)indazol-5-yl]oxy-1-(4-methoxy-2-methyl-phenyl)propan-2-yl]-1-methyl-cyclopropane-1-carboxamide]
26 | 2.9 | Cc1ccc(C)c([C@@H](Oc2ccc3c(cnn3-c3ccc(F)cc3)c2)[C@H](C)NC(=O)C(C)(F)F)c1 [Example 266, N-[(1R,2S)-1-(2,5-dimethylphenyl)-1-[1-(4-fluorophenyl)indazol-5-yl]oxy-propan-2-yl]-2,2-difluoro-propanamide]
27 | 12 | COc1cccc([C@@H](Oc2ccc3c(cnn3-c3ccc(F)cc3)c2)[C@H](C)NC(=O)CNC(C)=O)c1 [Example 269, N-[[(1R,2S)-1-[1-(4-fluorophenyl)indazol-5-yl]oxy-1-(3-methoxyphenyl)propan-2-yl]carbamoylmethyl]acetamide]
